{"source": "ChEMBL document CHEMBL1150976", "about": "“The selectivity of protein kinase inhibitors: a further update” (Biochem J, 2007)", "key": {"[1]": {"molecular_target": "Serine/threonine-protein kinase PAK 4 (Homo sapiens, UniProt O96013)", "sequence (O96013 whole entry)": "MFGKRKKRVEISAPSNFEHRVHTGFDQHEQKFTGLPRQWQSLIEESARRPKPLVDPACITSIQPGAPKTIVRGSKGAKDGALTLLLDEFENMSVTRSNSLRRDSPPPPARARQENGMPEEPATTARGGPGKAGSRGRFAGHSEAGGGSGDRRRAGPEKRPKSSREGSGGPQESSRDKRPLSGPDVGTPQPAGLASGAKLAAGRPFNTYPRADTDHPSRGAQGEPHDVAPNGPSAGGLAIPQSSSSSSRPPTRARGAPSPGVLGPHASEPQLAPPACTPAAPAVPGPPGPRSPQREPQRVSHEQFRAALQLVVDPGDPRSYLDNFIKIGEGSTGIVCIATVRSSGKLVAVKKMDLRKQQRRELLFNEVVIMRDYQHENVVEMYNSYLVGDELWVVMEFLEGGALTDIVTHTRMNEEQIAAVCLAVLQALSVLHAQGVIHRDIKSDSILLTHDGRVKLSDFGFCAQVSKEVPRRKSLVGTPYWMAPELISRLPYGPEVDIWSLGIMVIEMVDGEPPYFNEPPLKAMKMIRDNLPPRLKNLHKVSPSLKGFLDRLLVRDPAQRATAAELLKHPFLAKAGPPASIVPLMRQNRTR", "experiment": "Inhibition of PAK4 in the presence of 5uM ATP"}, "[2]": {"molecular_target": "Casein kinase II (Homo sapiens) (UniProt P67870+P68400+P19784)", "experiment": "Percentage CK2 activity remaining in the presence of 3uM inhibitor", "type": "protein-complex assay"}, "[3]": {"molecular_target": "Glycogen synthase kinase-3 beta (Homo sapiens, UniProt P49841)", "sequence (P49841 whole entry, looked up)": "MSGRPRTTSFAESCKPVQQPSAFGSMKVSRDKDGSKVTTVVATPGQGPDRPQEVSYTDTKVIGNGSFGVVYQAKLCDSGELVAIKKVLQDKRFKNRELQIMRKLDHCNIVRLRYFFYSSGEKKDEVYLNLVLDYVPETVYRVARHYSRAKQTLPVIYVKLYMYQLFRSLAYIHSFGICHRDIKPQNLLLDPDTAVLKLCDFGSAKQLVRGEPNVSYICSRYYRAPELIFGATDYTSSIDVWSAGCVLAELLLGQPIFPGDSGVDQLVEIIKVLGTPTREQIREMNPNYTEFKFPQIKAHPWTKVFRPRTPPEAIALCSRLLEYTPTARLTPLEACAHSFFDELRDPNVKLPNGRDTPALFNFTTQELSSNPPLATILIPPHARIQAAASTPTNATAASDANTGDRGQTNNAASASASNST", "experiment": "Percentage GSK3-beta activity remaining in the presence of 3uM inhibitor"}, "Homo sapiens [4]": {"species_on_record": "Homo sapiens", "experiment": "Percentage PHK activity remaining in the presence of 3uM inhibitor"}, "[5]": {"molecular_target": "Serine/threonine-protein kinase PAK 5 (Homo sapiens) (UniProt Q9P286)", "sequence (Q9P286 whole entry, looked up)": "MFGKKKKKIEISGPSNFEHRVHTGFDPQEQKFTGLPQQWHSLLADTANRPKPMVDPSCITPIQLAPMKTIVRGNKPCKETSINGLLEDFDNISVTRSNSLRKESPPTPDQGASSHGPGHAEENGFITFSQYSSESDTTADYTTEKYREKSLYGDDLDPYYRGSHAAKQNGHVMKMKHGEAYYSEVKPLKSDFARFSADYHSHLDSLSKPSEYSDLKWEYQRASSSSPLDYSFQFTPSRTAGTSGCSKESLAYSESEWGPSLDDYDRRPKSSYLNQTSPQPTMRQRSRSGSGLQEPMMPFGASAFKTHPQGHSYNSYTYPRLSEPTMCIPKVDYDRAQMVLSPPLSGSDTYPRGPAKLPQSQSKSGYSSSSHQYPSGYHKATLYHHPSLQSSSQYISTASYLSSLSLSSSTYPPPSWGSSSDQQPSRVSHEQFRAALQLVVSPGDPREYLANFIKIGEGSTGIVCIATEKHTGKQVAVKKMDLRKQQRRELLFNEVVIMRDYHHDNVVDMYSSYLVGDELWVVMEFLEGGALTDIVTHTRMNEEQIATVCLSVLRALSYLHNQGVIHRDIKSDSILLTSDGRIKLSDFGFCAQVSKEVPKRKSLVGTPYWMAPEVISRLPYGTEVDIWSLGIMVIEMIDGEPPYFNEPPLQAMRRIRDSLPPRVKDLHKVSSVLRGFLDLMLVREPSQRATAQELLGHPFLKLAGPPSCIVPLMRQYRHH", "experiment": "Percentage PAK5 activity remaining in the presence of 2uM inhibitor"}, "[6]": {"molecular_target": "Ribosomal protein S6 kinase alpha-5 (Homo sapiens) (UniProt O75582)", "sequence (O75582 whole entry, looked up)": "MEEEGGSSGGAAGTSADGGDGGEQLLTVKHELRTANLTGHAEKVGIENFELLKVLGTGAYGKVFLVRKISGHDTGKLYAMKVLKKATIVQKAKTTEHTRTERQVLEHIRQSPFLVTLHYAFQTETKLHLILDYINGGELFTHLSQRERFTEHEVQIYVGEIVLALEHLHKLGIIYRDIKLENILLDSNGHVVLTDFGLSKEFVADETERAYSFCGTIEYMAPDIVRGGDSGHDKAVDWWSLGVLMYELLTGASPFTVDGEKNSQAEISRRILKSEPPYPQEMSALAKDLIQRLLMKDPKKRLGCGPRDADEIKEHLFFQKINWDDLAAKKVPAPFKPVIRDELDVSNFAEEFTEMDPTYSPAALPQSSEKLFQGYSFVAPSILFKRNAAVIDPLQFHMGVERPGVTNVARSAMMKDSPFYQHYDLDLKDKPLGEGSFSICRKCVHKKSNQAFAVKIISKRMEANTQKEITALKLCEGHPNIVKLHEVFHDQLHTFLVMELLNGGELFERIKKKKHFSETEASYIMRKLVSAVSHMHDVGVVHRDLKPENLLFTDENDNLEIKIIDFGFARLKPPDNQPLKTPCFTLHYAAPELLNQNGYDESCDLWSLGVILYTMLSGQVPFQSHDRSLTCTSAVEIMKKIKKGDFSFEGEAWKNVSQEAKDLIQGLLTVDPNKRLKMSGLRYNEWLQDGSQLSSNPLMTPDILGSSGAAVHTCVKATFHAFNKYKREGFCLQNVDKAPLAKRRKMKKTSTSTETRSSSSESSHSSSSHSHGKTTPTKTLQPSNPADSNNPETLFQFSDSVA", "experiment": "Percentage MSK1 activity remaining in the presence of 2uM inhibitor"}, "Homo sapiens [7]": {"species_on_record": "Homo sapiens", "experiment": "Percentage PHK activity remaining in the presence of 2uM inhibitor"}, "[8]": {"molecular_target": "T1, Dual specificity tyrosine-phosphorylation-regulated kinase 3 (Homo sapiens) (UniProt O43781)", "T1 sequence (whole entry)": "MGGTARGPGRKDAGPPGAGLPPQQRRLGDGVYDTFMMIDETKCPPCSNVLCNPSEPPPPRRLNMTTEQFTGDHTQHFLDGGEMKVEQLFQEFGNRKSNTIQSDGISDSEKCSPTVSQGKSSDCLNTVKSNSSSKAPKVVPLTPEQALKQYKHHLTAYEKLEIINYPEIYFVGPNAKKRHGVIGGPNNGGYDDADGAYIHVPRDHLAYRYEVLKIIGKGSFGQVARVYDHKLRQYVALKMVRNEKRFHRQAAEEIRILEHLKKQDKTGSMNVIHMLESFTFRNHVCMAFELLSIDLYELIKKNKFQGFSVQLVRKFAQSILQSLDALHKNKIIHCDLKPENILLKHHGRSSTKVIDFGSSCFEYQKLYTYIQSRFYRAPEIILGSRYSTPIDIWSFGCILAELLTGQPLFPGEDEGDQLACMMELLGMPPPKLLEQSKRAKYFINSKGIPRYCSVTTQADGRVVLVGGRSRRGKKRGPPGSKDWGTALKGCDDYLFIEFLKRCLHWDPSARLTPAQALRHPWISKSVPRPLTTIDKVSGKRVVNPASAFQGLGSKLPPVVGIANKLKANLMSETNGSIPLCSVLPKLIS", "experiment": "Percentage DYRK3 activity remaining in the presence of 2uM inhibitor"}, "[9]": {"molecular_target": "T2, Protein kinase C zeta type (Homo sapiens) (UniProt Q05513)", "T2 sequence (whole entry)": "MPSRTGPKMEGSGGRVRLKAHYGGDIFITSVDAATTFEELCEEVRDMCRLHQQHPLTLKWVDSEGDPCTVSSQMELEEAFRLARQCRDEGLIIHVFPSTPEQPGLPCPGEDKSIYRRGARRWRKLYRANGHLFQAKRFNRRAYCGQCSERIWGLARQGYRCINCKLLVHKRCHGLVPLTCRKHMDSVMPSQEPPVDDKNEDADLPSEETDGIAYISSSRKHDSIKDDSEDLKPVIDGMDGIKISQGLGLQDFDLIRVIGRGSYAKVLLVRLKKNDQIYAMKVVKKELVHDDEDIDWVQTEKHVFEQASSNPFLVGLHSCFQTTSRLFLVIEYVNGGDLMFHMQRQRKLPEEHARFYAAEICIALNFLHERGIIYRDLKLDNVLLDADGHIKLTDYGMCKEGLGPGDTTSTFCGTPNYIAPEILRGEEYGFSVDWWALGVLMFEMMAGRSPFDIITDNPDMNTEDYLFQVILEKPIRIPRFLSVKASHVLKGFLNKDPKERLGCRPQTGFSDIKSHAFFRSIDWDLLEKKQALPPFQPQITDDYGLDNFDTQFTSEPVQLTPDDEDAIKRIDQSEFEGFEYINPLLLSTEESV", "experiment": "Percentage PKCzeta activity remaining in the presence of 2uM inhibitor"}, "[10]": {"molecular_target": "Mitogen-activated protein kinase 1 (Homo sapiens) (UniProt P28482)", "sequence (P28482 whole entry)": "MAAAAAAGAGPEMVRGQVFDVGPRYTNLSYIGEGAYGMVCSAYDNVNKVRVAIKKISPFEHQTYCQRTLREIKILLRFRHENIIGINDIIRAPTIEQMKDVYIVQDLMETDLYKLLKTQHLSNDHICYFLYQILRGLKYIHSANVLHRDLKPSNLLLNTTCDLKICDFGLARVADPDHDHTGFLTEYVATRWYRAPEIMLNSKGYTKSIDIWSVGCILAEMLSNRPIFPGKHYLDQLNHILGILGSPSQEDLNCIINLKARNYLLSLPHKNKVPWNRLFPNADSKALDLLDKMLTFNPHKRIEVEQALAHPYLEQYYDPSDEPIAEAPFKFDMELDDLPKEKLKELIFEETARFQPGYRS", "experiment": "Percentage ERK2 activity remaining in the presence of 2uM inhibitor"}}, "data": [{"smiles": "CC(C)[C@H](CO)Nc1nc(Nc2cccc(Cl)c2)c2ncn(C(C)C)c2n1", "note": "[PURVALANOLA]", "values": [{"measurement": "IC50", "setting": "[1]", "result": "130 nM (antagonist)"}]}, {"smiles": "Cc1ccc(-c2c(C(=O)CF)n(CCCO)c3ncnc(N)c23)cc1", "values": [{"measurement": "Activity", "setting": "[2]", "result": 92, "unit": "%"}, {"measurement": "Activity", "setting": "[3]", "result": 65, "unit": "%"}, {"measurement": "Activity", "setting": "Homo sapiens [4]", "result": 93, "unit": "%"}]}, {"smiles": "Cn1cc(C2=C(c3ccc(Cl)cc3Cl)C(=O)NC2=O)c2ccccc21", "values": [{"measurement": "Activity", "setting": "[5]", "result": 85, "unit": "%"}, {"measurement": "Activity", "setting": "[6]", "result": 69, "unit": "%"}, {"measurement": "Activity", "setting": "Homo sapiens [7]", "result": 87, "unit": "%"}, {"measurement": "Activity", "setting": "[8]", "result": 79, "unit": "%"}, {"measurement": "Activity", "setting": "[9]", "result": 81, "unit": "%"}, {"measurement": "Activity", "setting": "[10]", "result": 97, "unit": "%"}]}]}
